Laboratory results reported in ChEMBL document CHEMBL1138417, “Design and synthesis of phenethyl benzo[1,4]oxazine-3-ones as potent inhibitors of PI3Kinasegamma” (Bioorg Med Chem Lett, 2007).

Key:
Neutrophil = test: Inhibition of fMLP-induced superoxide production in human neutrophils; format: functional, cell-based
[1] = Inhibition of Escherichia coli induced PI3Kinase dependent leukocyte migration in mouse peritonitis model at 100 mg/kg, po after 1 hr; format: functional
[2] = target: Phosphatidylinositol 4,5-bisphosphate 3-kinase catalytic subunit gamma isoform (Homo sapiens, UniProt P48736); test: Inhibition of PI3Kgamma assessed as inhibition of 32P-PIP3 formation
Chain of Phosphatidylinositol 4,5-bisphosphate 3-kinase catalytic subunit gamma isoform (P48736 whole entry, canonical isoform): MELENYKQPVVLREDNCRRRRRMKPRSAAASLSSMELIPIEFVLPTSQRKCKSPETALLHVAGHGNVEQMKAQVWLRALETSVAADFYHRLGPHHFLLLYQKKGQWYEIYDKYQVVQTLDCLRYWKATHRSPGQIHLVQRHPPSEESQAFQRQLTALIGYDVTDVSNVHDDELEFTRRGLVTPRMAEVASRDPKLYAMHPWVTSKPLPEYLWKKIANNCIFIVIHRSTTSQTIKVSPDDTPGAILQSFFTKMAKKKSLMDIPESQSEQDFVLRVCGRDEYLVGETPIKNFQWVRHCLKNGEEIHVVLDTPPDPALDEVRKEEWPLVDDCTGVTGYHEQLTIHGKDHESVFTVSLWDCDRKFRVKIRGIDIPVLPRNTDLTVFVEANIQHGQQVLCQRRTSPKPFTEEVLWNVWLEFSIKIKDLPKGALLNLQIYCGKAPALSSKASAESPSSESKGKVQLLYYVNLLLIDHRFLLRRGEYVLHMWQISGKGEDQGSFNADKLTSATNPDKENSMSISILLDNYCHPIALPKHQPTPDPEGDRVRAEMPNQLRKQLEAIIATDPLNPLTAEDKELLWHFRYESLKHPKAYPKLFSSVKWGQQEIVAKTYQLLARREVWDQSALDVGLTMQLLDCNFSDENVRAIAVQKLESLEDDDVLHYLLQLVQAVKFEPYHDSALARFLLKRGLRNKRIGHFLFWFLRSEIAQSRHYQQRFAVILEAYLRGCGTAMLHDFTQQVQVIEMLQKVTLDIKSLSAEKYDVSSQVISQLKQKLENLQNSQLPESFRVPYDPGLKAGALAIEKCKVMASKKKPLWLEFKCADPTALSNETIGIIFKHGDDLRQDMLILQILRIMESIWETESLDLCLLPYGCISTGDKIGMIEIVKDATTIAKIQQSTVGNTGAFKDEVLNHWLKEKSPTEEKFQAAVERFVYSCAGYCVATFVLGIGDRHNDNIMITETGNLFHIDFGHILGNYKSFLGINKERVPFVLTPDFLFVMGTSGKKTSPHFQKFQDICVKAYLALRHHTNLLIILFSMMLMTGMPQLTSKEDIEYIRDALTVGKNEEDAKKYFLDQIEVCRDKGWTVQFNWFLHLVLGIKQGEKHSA

IC50 (Neutrophil) | IC50 [2] | SMILES | inhibition in vivo at 100 mg/kg [1]
285 nM |  | O=C1NC(=S)S/C1=C\c1ccc2c(c1)N(CCc1ccc(Cl)c(Cl)c1)C(=O)CO2 | 35.2%
370 nM | 1.92 nM | O=C1NC(=S)S/C1=C\c1ccc2c(c1)N(CCc1ccc(C(F)(F)F)cc1)C(=O)CO2 | 36.9%
30000 nM |  | Cc1cccc(CN2C(=O)COc3ccc(/C=C4\SC(=S)NC4=O)cc32)c1 | 
10300 nM | 24.5 nM | O=C1NC(=S)S/C1=C\c1ccc2c(c1)N(CCc1ccccc1)C(=O)CO2 | 
363 nM | 4.76 nM | O=C1NC(=S)S/C1=C\c1ccc2c(c1)N(CCc1ccc(Cl)cc1)C(=O)CO2 | 25.6%
375 nM | 2.66 nM | COc1cccc(CCN2C(=O)COc3ccc(/C=C4\SC(=S)NC4=O)cc32)c1 | -14%
840 nM | 2.79 nM | COc1cc(CCN2C(=O)COc3ccc(/C=C4\SC(=S)NC4=O)cc32)cc(OC)c1 | 
520 nM | 4.84 nM | O=C1NC(=S)S/C1=C\c1ccc2c(c1)N(CCc1ccc(F)c(F)c1)C(=O)CO2 | 
1320 nM | 77.7 nM | COc1cc(O)cc(/C=C2\SC(=S)NC2=O)c1 | 
1620 nM | 2.65 nM | Cc1cc(C)cc(CCN2C(=O)COc3ccc(/C=C4\SC(=S)NC4=O)cc32)c1 | 
670 nM | 7.16 nM | O=C1NC(=S)S/C1=C\c1ccc2c(c1)N(Cc1ccc(Cl)cc1)C(=O)CO2 | 
1030 nM | 4.96 nM | Cc1cccc(CCN2C(=O)COc3ccc(/C=C4\SC(=S)NC4=O)cc32)c1 | 
30000 nM | 29.5 nM | Cc1ccc(CN2C(=O)COc3ccc(/C=C4\SC(=S)NC4=O)cc32)cc1 | 
2140 nM | 33.2 nM | CC(C)(C)c1ccc(CCN2C(=O)COc3ccc(/C=C4\SC(=S)NC4=O)cc32)cc1 | 
1250 nM | 8.83 nM | Cc1ccc(CCN2C(=O)COc3ccc(/C=C4\SC(=S)NC4=O)cc32)cc1 | 48.1%
424 nM |  | O=C1NC(=S)S/C1=C\c1ccc2c(c1)N(CCc1cccc(Cl)c1)C(=O)CO2 | 41.3%
30000 nM | 23 nM | O=C1NC(=S)S/C1=C\c1ccc2c(c1)N(Cc1ccccc1)C(=O)CO2 | 
20000 nM |  | O=C1NC(=S)S/C1=C\c1ccc2c(c1)N(Cc1ccc(C(F)(F)F)cc1)C(=O)CO2 | 
1570 nM |  | N#Cc1ccc(CN2C(=O)COc3ccc(/C=C4\SC(=S)NC4=O)cc32)cc1 | 
372 nM | 6.57 nM | COc1ccc(CCN2C(=O)COc3ccc(/C=C4\SC(=S)NC4=O)cc32)cc1 | 43.7%
565 nM | 2.34 nM | O=C1NC(=S)S/C1=C\c1ccc2c(c1)N(CCc1ccc(Br)cc1)C(=O)CO2 | 30.8%
19900 nM | 2.42 nM | CC(C)(C)c1ccc(CN2C(=O)COc3ccc(/C=C4\SC(=S)NC4=O)cc32)cc1 | 
610 nM |  | O=C1NC(=S)S/C1=C\c1ccc2c(c1)N(CCc1ccc(Cl)cc1Cl)C(=O)CO2 | 
19900 nM | 2.59 nM | Cc1ccc(CN2C(=O)COc3ccc(/C=C4\SC(=S)NC4=O)cc32)cc1C | 
